Data on 21 molecules can be found in patent US9856279B2 (AGIOS PHARMACEUTICALS, INC, priority 2011, dated 2018).

For orientation: IC50 means the point on the concentration scale where inhibition reaches its midpoint.

In assay [1] the test system is HT1080 cells. Nature of the assay: Cellular assay for IDH1m inhibitors: inhibition of 2-HG production (LC-MS, 48 hours) in HT1080 cells. The note with it: Homo sapiens, HT-1080; inhibition of 2-HG production, HT1080 cells; read-out: HT1080 IC50. Format: cell-based. The method, boiled down:
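Inhibition of 2-HG production was assessed in cells seeded at 5000/well and exposed to compound for 48 h (final DMSO 0.2%). Supernatant 2-HG was analysed by LC-MS.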

Assay [2] concerns the target IDH1 R132H (Homo sapiens, UniProt O75874, R132H). Nature of the assay: Assay for IDH1 R132H inhibitors (NADPH/aKG, resazurin detection). Format: biochemical. The note with it: enzyme assay of Example 12; read-out: IDH1R132H IC50. The essentials: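 Compound added to substrate mix (8 uM NADPH, 2 mM aKG), then enzyme mix (0.2 μg/ml IDH1 R132H); 50 min RT in 20 mM Tris pH 7.5, 150 mM NaCl, 10 mM MgCl2, 0.03% BSA. Resazurin detection mix (30 μM) 5 min RT; resorufin fluorescence Ex544/Em590.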
(Alamar Blue is a resazurin reagent that responds to reducing activity.)

Assay [3] concerns U87MG cells. Nature of the assay: Cellular assay for IDH1m inhibitors: inhibition of 2-HG production (LC-MS, 48 hours) in U87MG cells. In kind it is cell-based. The note with it: Homo sapiens, U-87 MG, inhibition of 2-HG production, U87R132H cells; read-out: U87R132H IC50. The protocol:
Cells (e.g., HT1080 or U87MG) and are grown in T125 flasks in DMEM containing 10% FBS, 1× penicillin/streptomycin and 500 ug/mL G418. They are harvested by trypsin and seeded into 96 well white bottom plates at a density of 5000 cell/well in 100 ul/well in DMEM with 10% FBS. No cells are plates in columns 1 and 12. Cells are incubated overnight at 37° C. in 5% CO2. The next day compounds are made up at 2× concentration and 100 ul are added to each cell well. The final concentration of DMSO is 0.2% and the DMSO control wells are plated in row G. The plates are then placed in the incubator for 48 hours. At 48 hours, 100 μl of media is removed from each well and analyzed by LC-MS for 2-HG concentrations. The cell plate is placed back in the incubator for another 24 hours. At 72 hours post compound addition, 10 mL/plate of Promega Cell Titer Glo reagent is thawed and mixed. The cell plate is removed from the incubator and allowed to equilibrate to room temperature. Then 100 ul of reagent is added to each well of media. The cell plate is then placed on an orbital shaker for 10 minutes and then allowed to sit at room temperature for 20 minutes. The plate is then read for luminescence with an integration time of 500 ms.
The IC50 for inhibition of 2-HG production (concentration of test compound to reduce 2HG production by 50% compared to control) in these two cell lines for various compounds of formula I is set forth in Table 4 above.

IDH1 R132H, sequence (O75874 whole entry R132H): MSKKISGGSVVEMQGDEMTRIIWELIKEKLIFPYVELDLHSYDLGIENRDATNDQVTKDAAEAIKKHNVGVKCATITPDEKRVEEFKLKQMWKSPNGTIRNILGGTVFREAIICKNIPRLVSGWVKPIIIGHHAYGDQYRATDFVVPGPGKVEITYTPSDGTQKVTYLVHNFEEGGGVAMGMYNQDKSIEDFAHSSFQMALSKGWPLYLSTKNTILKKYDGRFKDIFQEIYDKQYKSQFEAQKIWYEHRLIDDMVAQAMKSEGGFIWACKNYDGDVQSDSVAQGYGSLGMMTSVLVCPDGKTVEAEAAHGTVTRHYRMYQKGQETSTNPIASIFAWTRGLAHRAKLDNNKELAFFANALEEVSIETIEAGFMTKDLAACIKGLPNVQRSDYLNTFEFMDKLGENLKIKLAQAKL

For the molecule `COCCC(=O)N1CCN(c2nc(C3CC3)c(OC(c3ccccc3)C(C)C)cc2C#N)C[C@H]1C` (stereo partly drawn) [Compound 302, 6-cyclopropyl-2-((R)-4-(3-methoxypropanoyl)-3-methylpiperazin-1-yl)-5-(2-methyl-1-phenylpropoxy)nicotinonitrile], the IC50 in assay [1] is 1000 to 10000 nM; in assay [2] it was below 500 nM; in assay [3] it was 1000 to 10000 nM.
In the case of `COCCC(=O)N1CCN(c2nc(C3CC3)c(O[C@@H](C)c3ccccc3)cc2C#N)C[C@H]1C` [Compound 303, 6-cyclopropyl-2-((R)-4-(3-methoxypropanoyl)-3-methylpiperazin-1-yl)-5-((S)-1-phenylethoxy)nicotinonitrile], the concentration for half-maximal inhibition (IC50) in assay [1] was 1000 to 10000 nM; in assay [2], below 500 nM; in assay [3], 1000 to 10000 nM.
In the case of `COCCC(=O)N1CCN(c2nc(C3CC3)c(OCc3cccnc3)cc2C#N)C[C@H]1C` [Compound 304, (R)-6-cyclopropyl-2-(4-(3-methoxypropanoyl)-3-methylpiperazin-1-yl)-5-(pyridin-3-ylmethoxy)nicotinonitrile], the IC50 was 1000 to 10000 nM in assay [1], below 500 nM in assay [2] and 500 to 1000 nM in assay [3].
For the molecule `COCCC(=O)N1CCN(c2nc(C3CC3)c(O[C@H](C)c3ccccc3)cc2C#N)C[C@H]1C` [Compound 307, 6-cyclopropyl-2-((R)-4-(3-methoxypropanoyl)-3-methylpiperazin-1-yl)-5-((R)-1-phenylethoxy)nicotinonitrile], the results for the concentration for half-maximal inhibition (IC50) in assay [1], in assay [2] and in assay [3] were 1000 to 10000 nM, below 500 nM and 1000 to 10000 nM, respectively.
On to `CCC(Oc1cc(C#N)c(N2CCN(C(=O)CCOC)[C@H](C)C2)nc1C1CC1)c1ccccc1` (stereo partly drawn) [Compound 308, 6-cyclopropyl-2-((R)-4-(3-methoxypropanoyl)-3-methylpiperazin-1-yl)-5-(1-phenylpropoxy)nicotinonitrile], for which the IC50 in assay [1] was 1000 to 10000 nM; in assay [2], below 500 nM; in assay [3], 1000 to 10000 nM.
For the molecule `COCCC(=O)N1CCN(c2nc(C3CC3)c(OCc3ccncc3)cc2C#N)C[C@H]1C` [Compound 309, (R)-6-cyclopropyl-2-(4-(3-methoxypropanoyl)-3-methylpiperazin-1-yl)-5-(pyridin-4-ylmethoxy)nicotinonitrile], the IC50 is 500 to 1000 nM in assay [1], below 500 nM in assay [2] and 500 to 1000 nM in assay [3].
Consider `COCCC(=O)N1CCN(c2nc(C3CC3)c(OCc3cccc([N+](=O)[O-])c3)cc2C#N)C[C@H]1C` [Compound 312, (R)-6-cyclopropyl-2-(4-(3-methoxypropanoyl)-3-methylpiperazin-1-yl)-5-(3-nitrobenzyloxy)nicotinonitrile], for which the IC50 was 500 to 1000 nM in assay [1], below 500 nM in assay [2] and 1000 to 10000 nM in assay [3].
With `COCCC(=O)N1CCN(c2nc(C3CC3)c(-c3ccc4c(c3)NC(=O)C4)cc2C#N)C[C@H]1C` [Compound 313, (R)-6-cyclopropyl-2-(4-(3-methoxypropanoyl)-3-methylpiperazin-1-yl)-5-(2-oxoindolin-6-yl)nicotinonitrile], the values for the 50% inhibitory concentration (IC50) in assay [1], in assay [2] and in assay [3] were 1000 to 10000 nM, below 500 nM and 500 to 1000 nM, respectively.
With `COCCC(=O)N1CCN(c2nc(C3CC3)c(-c3ccnc4ccccc34)cc2C#N)C[C@H]1C` [Compound 315, (R)-6-cyclopropyl-2-(4-(3-methoxypropanoyl)-3-methylpiperazin-1-yl)-5-(quinolin-4-yl)nicotinonitrile], the IC50 in assay [1] was below 500 nM; in assay [2], below 500 nM; in assay [3], 500 to 1000 nM.
Consider `COCCC(=O)N1CCN(c2nc(C3CC3)c(-c3cccnc3OC)c(C)c2C#N)C[C@H]1C` [Compound 320, (R)-2-cyclopropyl-2′-methoxy-6-[4-(3-methoxy-propionyl)-3-methyl-piperazin-1-yl]-4-methyl-[3,3′]bipyridinyl-5-carbonitrile], for which the IC50 in assay [1] was 500 to 1000 nM; in assay [2], below 500 nM; in assay [3], below 500 nM.
`COCCC(=O)N1CCN(c2nc(C3CC3)c(-c3ccc(F)c(C#N)c3)c(C)c2C#N)C[C@H]1C` [Compound 321, (R)-5-(3-cyano-4-fluoro-phenyl)-6-cyclopropyl-2-[4-(3-methoxy-propionyl)-3-methyl-piperazin-1-yl]-4-methyl-nicotinonitrile]: the IC50 in assay [1] was 500 to 1000 nM; in assay [2], below 500 nM; in assay [3] it was below 500 nM.
In the case of `COCCC(=O)N1CCN(c2nc(C3CC3)c(-c3ccc(OC)c(F)c3)c(C)c2C#N)C[C@H]1C` [Compound 323, (R)-6-cyclopropyl-5-(3-fluoro-4-methoxy-phenyl)-2-[4-(3-methoxy-propionyl)-3-methyl-piperazin-1-yl]-4-methyl-nicotinonitrile], the 50% inhibitory concentration (IC50) in assay [1] was 500 to 1000 nM; in assay [2] it was below 500 nM; in assay [3], 500 to 1000 nM.
As to `COCCC(=O)N1CCN(c2nc(C3CC3)c(-c3ccc(NC(C)=O)cc3)c(C)c2C#N)C[C@H]1C` [Compound 326, (R)—N-(4-{5-cyano-2-cyclopropyl-6-[4-(3-methoxy-propionyl)-3-methyl-piperazin-1-yl]-4-methyl-pyridin-3-yl}-phenyl)-acetamide], the IC50 is 500 to 1000 nM in assay [1], below 500 nM in assay [2] and below 500 nM in assay [3].
Take `COCCC(=O)N1CCN(c2nc(C3CC3)c(-c3ccc(CNS(C)(=O)=O)cc3)c(C)c2C#N)C[C@H]1C` [Compound 330, (R)—N-(4-{5-cyano-2-cyclopropyl-6-[4-(3-methoxy-propionyl)-3-methyl-piperazin-1-yl]-4-methyl-pyridin-3-yl}-benzyl)-methanesulfonamide]: the 50% inhibitory concentration (IC50) in assay [1], in assay [2] and in assay [3] was below 500 nM in each case.
As for `COCCC(=O)N1CCN(c2nc(C3CC3)c(-c3cccc(CNS(C)(=O)=O)c3)c(C)c2C#N)C[C@H]1C` [Compound 335, (R)—N-(3-{5-cyano-2-cyclopropyl-6-[4-(3-methoxy-propionyl)-3-methyl-piperazin-1-yl]-4-methyl-pyridin-3-yl}-benzyl)-methanesulfonamide], the values for the IC50 in assay [1], in assay [2] and in assay [3] were 500 to 1000 nM, below 500 nM and below 500 nM, respectively.
`COCCC(=O)N1CCN(c2nc(C3CC3)c(-c3ccc(CNC(C)=O)cc3)c(C)c2C#N)C[C@H]1C` [Compound 340, (R)—N-(4-{5-cyano-2-cyclopropyl-6-[4-(3-methoxy-propionyl)-3-methyl-piperazin-1-yl]-4-methyl-pyridin-3-yl}-benzyl)-acetamide]: the concentration for half-maximal inhibition (IC50) in assay [1] is 500 to 1000 nM; in assay [2] it was below 500 nM; in assay [3] it was 500 to 1000 nM.
On to `COCCC(=O)N1CCN(c2nc(C3CC3)c(-c3cccc4cccnc34)cc2C#N)C[C@H]1C` [Compound 342, (R)-6-cyclopropyl-2-(4-(3-methoxypropanoyl)-3-methylpiperazin-1-yl)-5-(quinolin-8-yl)nicotinonitrile], for which the IC50 in assay [1], in assay [2] and in assay [3] was below 500 nM throughout.
For `C=CC(=O)Nc1cccc(-c2cc(C#N)c(N3CCN(C(=O)CCOC)[C@H](C)C3)nc2C2CC2)c1` [Compound 343, (R)—N-(3-(5-cyano-2-cyclopropyl-6-(4-(3-methoxypropanoyl)-3-methylpiperazin-1-yl)pyridin-3-yl)phenyl)acrylamide], the 50% inhibitory concentration (IC50) in assay [1], in assay [2] and in assay [3] was below 500 nM throughout.
As for `COCCC(=O)N1CCN(c2nc(C3CC3)c(-c3c(C)noc3C)cc2C#N)C[C@H]1C` [Compound 345, (R)-6-cyclopropyl-5-(3,5-dimethyl-isoxazol-4-yl)-2-[4-(3-methoxy-propionyl)-3-methyl-piperazin-1-yl]-nicotinonitrile], the half-maximal inhibitory concentration (IC50) is 1000 to 10000 nM in assay [1], below 500 nM in assay [2] and 500 to 1000 nM in assay [3].
Consider `COCCC(=O)N1CCN(c2nc(C3CC3)c(-c3ccc(F)nc3)c(C)c2C#N)C[C@H]1C` [Compound 346], for which the IC50 in assay [1] is 1000 to 10000 nM; in assay [2], below 500 nM; in assay [3], 500 to 1000 nM.
Take `COCCC(=O)N1CCN(c2nc(C3CC3)c(-c3ccc(C#N)cc3)c(C)c2C#N)C[C@H]1C` [Compound 347, (R)-5-(4-cyano-phenyl)-6-cyclopropyl-2-[4-(3-methoxy-propionyl)-3-methyl-piperazin-1-yl]-4-methyl-nicotinonitrile]: the IC50 in assay [1], in assay [2] and in assay [3] was below 500 nM throughout.
